For data set [1], the target named is T1, human sAC (Homo sapiens, UniProt Q96PN6).
T1 construct: made in house
T1 sequence (Q96PN6 1-469 limits assumed): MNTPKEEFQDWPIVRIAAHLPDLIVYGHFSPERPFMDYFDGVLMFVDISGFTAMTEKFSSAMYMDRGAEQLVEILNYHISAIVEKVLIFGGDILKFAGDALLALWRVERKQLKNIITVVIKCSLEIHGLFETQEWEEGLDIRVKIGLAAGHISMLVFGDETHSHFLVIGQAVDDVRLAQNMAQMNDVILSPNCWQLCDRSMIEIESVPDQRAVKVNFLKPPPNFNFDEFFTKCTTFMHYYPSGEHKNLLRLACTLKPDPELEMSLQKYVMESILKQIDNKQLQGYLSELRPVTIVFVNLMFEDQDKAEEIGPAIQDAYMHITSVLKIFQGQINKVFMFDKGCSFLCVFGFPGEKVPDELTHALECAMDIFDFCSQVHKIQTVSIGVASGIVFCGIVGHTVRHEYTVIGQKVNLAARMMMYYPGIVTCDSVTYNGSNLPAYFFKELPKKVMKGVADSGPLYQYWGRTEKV
Nature of the data set: in vitro adenylyl cyclase assay with purified human sAC protein (cAMP by Correlate-EIA). The format is biochemical. The note with it: for inhibition at 100 µM: 100 μM of compound. The procedure: Purified human sAC protein was used in an in vitro adenylyl cyclase assay. Purification of the protein is described in detail in Litvin et al. 2003. (J. Biol. Chem. 278:15922-15926). This paper also describes the general conditions for a sAC cyclase assay. The specific conditions for the in vitro assay are as follows.
For basal sAC activity, an assay master mixture with sufficient volume for all reactions was prepared containing:
100 U/ml creatine phosphokinase (CPK)
An aliquot of the master mixture was added to the purified human sAC. The assay mixture also included the indicated concentration of KH compound, or an equivalent volume of vehicle (i.e., DMSO) as control. The reaction was started by adding 5 mM ATP (total assay volume=100 μL). The reaction mixture was incubated at 30° C. for 30 minutes and then stopped by adding 100 μl […]. Stimulated assay conditions involve adding 40 mM bicarbonate and 5 mM CaCl2 to the above master mixture.
Cyclic AMP levels were measured in each sample using the Correlate-EIA Direct Cyclic AMP assay kit from Assay Designs as per manufacturers instructions.

Data set [2] concerns endogenous transmembrane adenylyl cyclases. The data set can be described thus: cellular cAMP accumulation assay in 293T cells + IBMX + forskolin. The format is cell-based, human. The settings on record: for IC50: 293T cells, 500 μM IBMX and 10 μM forskolin, endogenous tmAC activity, read-out: 293T + FSK. The procedure:
(§1) 293T cells or 4-4 cells (hsACt stably transfected into 293T) were grown in 75 cm2 Tissue Culture Flasks until nearly confluent using DMEM (10% FBS, 1% L-Glutamine, 1% Penicillin/Streptomycin). Cells were released from the flask with 3 ml of trypsin followed by addition of 7 ml of DMEM to neutralize the trypsin. Cells were mixed by pipetting up and down with 10 ml serological pipette. To a 3 ml aliquot of the cell mixture, 6 ml of DMEM (prewarmed to 37° C.) was added followed by thorough mixing by picking up the entire 9 mls using a repeat pipettor, and slowly pipetting out against the wall of container. This was repeated this ten times to ensure the mixture in homogenous. 100 μL of cells were then added to each pre-siliconized 1.7 ml Eppindorf tubes (Costar #3207) followed by a 60 min incubation at 37° C. and 5% CO2. This incubation was performed in 20-tube, round, floating racks (VWR #60986-100), which enable a quick transfer of the samples to a water bath, and the ability to mix several samples simultaneously. Following the incubation, 1 μL of the compound in DMSO was added (or just DMSO for controls). The cells were mixed before and after adding the compound, by a brief (and light) vortexing. The compounds were added while the cells were in the 37° C. water bath, followed by a 10 min incubation at 37° C. and 5% CO2. Following this incubation, 1 μL it of IBMX or 1 μL of IBMX+Forskolin was added with Repeat Pipettor. The 4-4 cells receive the IBMX to a final concentration of 500 μM IBMX. The 293T cells receive IBMX and Forskolin to final concentration of 500 μM IBMX and 10 μM, respectively. Both the IBMX mix (for 4-4 cells), and the IBMX/FSK mix (for 293T cells) were 100×, and were dissolved in DMSO. Cells were mixed and incubated at 37° C. and 5% CO2 for 15 min. The assay was stopped by placing the cells in an ice bath. Cells were pelleted by centrifugation at 2000×G for 7 min at 4° C. The supernatant was aspirated and 250 μL of 0.1 N HCl was added to each cell pellet followed by through vortexing for 1 min. Following a 10 min incubation at room temperature, 30 μL of each sample was added to 70 μL of 0.1 N HCl and the cAMP levels were measured using the protocol for the Direct Cyclic AMP Kit (Assay Designs, Inc. #901-066). This 30 μL plus 70 μL of 0.1 N HCl makes up the sample described in step 5 of the Assay Designs' protocol. The samples should lie in the linear range of the assay.
In general terms: cAMP levels reflect the balance of adenylyl cyclase and phosphodiesterase activity.

Data set [3] deals with T1, human sAC. The data set can be described thus: cellular cAMP accumulation assay in 4-4 cells (hsACt stably transfected into 293T), IBMX. The data set is classed as cell-based. The settings on record: for IC50: stable cell line overexpressing human sAC, 500 μM IBMX, read-out: 4-4, Basal approximate IC50 (or the dose range where the IC50 should lie). The procedure:
as §1, with “cells (hsACt” left out, “The 293T cells receive IBMX and Forskolin to final concentration of 500 μM IBMX and 10 μM, respectively.” left out

Where [4] appears, read: BASAL human sAC in vitro activity, read-out: % Inhibition (100 μM), hsACt-Basal.
[5] abbreviates: stimulated human sAC in vitro activity, read-out: % Inhibition (100 μM), hsACt-Stim.
Setting [6] is: BASAL activity of human sAC in vitro (just Mg-ATP, no calcium or bicarbonate), read-out: hsACt-Basal approximate IC50 (or the dose range where the IC50 should lie).
Setting [7] is: stimulated activity of human sAC in vitro (calcium and bicarbonate stimulated), read-out: hsACt-Stim. approximate IC50 (or the dose range where the IC50 should lie).

Where two headings read alike, the source gives them in different places.

Regarding `CC(Sc1nc2ccccc2[nH]1)C(=O)N/N=C/c1ccc([N+](=O)[O-])cc1` (centres unmarked) [KH7.101], the inhibition at 100 µM at human sAC [1] (setting [4]) and on human sAC [1] (setting [5]) was 50% each time. Besides, the IC50 at human sAC [1] (setting [6]) is 10 to 100 µM; on human sAC [1] (setting [7]) it was 10 to 100 µM; in data set [2], > 120 µM; at human sAC [3], 30 µM.
For the compound `O=C(CSc1nc2ccccc2[nH]1)NCCc1ccccc1` [KH7.102], the inhibition at 100 µM on human sAC [1] (setting [4]) and at human sAC [1] (setting [5]) was 0% throughout. Moreover, the IC50 is > 100 µM at human sAC [1] (setting [6]), > 100 µM at human sAC [1] (setting [7]), > 500 µM in data set [2] and 100 µM at human sAC [3].
`O=C(CSc1nc2ccccc2[nH]1)N/N=C/c1cc(Br)ccc1O` [KH7.103]: the inhibition at 100 µM at human sAC [1] (setting [4]) and at human sAC [1] (setting [5]) was 100% in each case. Also, the IC50 is 10 to 100 µM at human sAC [1] (setting [6]), 10 to 100 µM on human sAC [1] (setting [7]), > 120 µM in data set [2] and 60 to 120 µM on human sAC [3].
As to `O=C(CSc1nc2ccccc2[nH]1)N/N=C/c1cccc(Br)c1` [KH7.104], the inhibition at 100 µM stood at 70% on human sAC [1] (setting [4]) and 85% on human sAC [1] (setting [5]). The IC50 is 10 to 100 µM on human sAC [1] (setting [6]), 10 to 100 µM at human sAC [1] (setting [7]), 60 to 120 µM in data set [2] and 15 µM on human sAC [3].
Take `O=C(CSc1nc2ccccc2[nH]1)N/N=C/c1ccc(Cl)cc1Cl` [KH7.105]: the inhibition at 100 µM on human sAC [1] (setting [4]) and at human sAC [1] (setting [5]) was 90% in each case. The IC50 at human sAC [1] (setting [6]) was 10 to 100 µM; at human sAC [1] (setting [7]), 10 to 100 µM; in data set [2], 60 µM; on human sAC [3], 15 µM.
On to `COc1ccc(/C(C)=N\NC(=O)CSc2nc3ccccc3[nH]2)cc1` [KH7.106], for which the IC50 in data set [2] is > 500 µM.
Turning to `C/C(=N\NC(=O)CSc1nc2ccccc2[nH]1)c1ccc(Br)cc1` [KH7.107], the inhibition at 100 µM at human sAC [1] (setting [4]) and on human sAC [1] (setting [5]) was 95% throughout. In addition, the IC50 was 10 to 100 µM on human sAC [1] (setting [6]), 10 to 100 µM on human sAC [1] (setting [7]), > 120 µM in data set [2] and 60 to 120 µM on human sAC [3].
`C/C(=N\NC(=O)CSc1nc2ccccc2[nH]1)c1ccccc1` [KH7.108]: the inhibition at 100 µM on human sAC [1] (setting [4]) and on human sAC [1] (setting [5]) was 0% each time. In addition, the IC50 at human sAC [1] (setting [6]) is > 100 µM; at human sAC [1] (setting [7]), > 100 µM; in data set [2] it was 60 to 120 µM; on human sAC [3] it was 30 to 60 µM. In addition, the “cellular toxicity remark, 293T + FSK” value in data set [2] (293T cells + FSK) is “may be cellular toxicity”. In addition, the “cellular toxicity remark, 4-4 Basal” value at human sAC [3] (4-4 cells) is reported as “may be cellular toxicity”.
Regarding `C/C(=N\NC(=O)CSc1nc2ccccc2[nH]1)c1ccco1` [KH7.109], the inhibition at 100 µM at human sAC [1] (setting [4]) and on human sAC [1] (setting [5]) was 0% throughout. In addition, the IC50 on human sAC [1] (setting [6]) was > 100 µM; on human sAC [1] (setting [7]) it was > 100 µM; in data set [2], > 120 µM; on human sAC [3] it was ~120 µM.
For the compound `C/C(=N\NC(=O)CSc1nc2ccccc2[nH]1)c1ccc(Cl)cc1` [KH7.110], the inhibition at 100 µM on human sAC [1] (setting [4]) and on human sAC [1] (setting [5]) was 90% each time. Further, the IC50 on human sAC [1] (setting [6]) is 10 to 100 µM; at human sAC [1] (setting [7]) it was 10 to 100 µM; in data set [2], > 120 µM; on human sAC [3], 30 to 60 µM.
As for `CCCOc1ccc(/C=N/NC(=O)CSc2nc3ccccc3[nH]2)cc1` [KH7.111], the inhibition at 100 µM on human sAC [1] (setting [4]) and on human sAC [1] (setting [5]) was 70% throughout. Further, the IC50 on human sAC [1] (setting [6]) is 10 to 100 µM; on human sAC [1] (setting [7]), 10 to 100 µM; in data set [2] it was 120 µM; on human sAC [3], 3 to 30 µM.
On to `COc1cc(/C(C)=N\NC(=O)CSc2nc3ccccc3[nH]2)ccc1O` [KH7.114], for which the inhibition at 100 µM at human sAC [1] (setting [4]) and on human sAC [1] (setting [5]) was 0% throughout. Moreover, the IC50 was > 100 µM on human sAC [1] (setting [6]), > 100 µM on human sAC [1] (setting [7]), > 500 µM in data set [2] and 56 to 167 µM at human sAC [3].
Regarding `C/C(=N/NC(=O)CSc1nc2ccccc2[nH]1)c1ccncc1` [KH7.117], the inhibition at 100 µM at human sAC [1] (setting [4]) and on human sAC [1] (setting [5]) was 0% each time. The IC50 on human sAC [1] (setting [6]) is > 100 µM; on human sAC [1] (setting [7]), > 100 µM; in data set [2], > 500 µM; on human sAC [3], 167 to 500 µM.
Take `O=C(CSc1nc2ccccc2[nH]1)N/N=C/c1cc(I)cc(I)c1O` [KH7.154]: the inhibition at 100 µM was 100% at human sAC [1] (setting [4]) and 85% on human sAC [1] (setting [5]). Also, the IC50 at human sAC [1] (setting [6]) and on human sAC [1] (setting [7]) was 0.1 to 1 µM each time.
`O=C(CSc1nc2ccccc2[nH]1)N/N=C/c1cc([N+](=O)[O-])ccc1Cl` [KH7.155]: the inhibition at 100 µM on human sAC [1] (setting [4]) and on human sAC [1] (setting [5]) was 0% each time. Also, the IC50 on human sAC [1] (setting [6]) and on human sAC [1] (setting [7]) was > 100 µM in each case.

One may read the inhibition as the drop in the measured response relative to a control, in per cent.

Values taken from patent US9017681B2, “Adenylyl cyclases as novel targets for antibactrial interventions” (Cornell Research Foundation, Inc., priority 2007, dated 2015).
